Measurements: US11407741B2, “Compounds and their use as selective inhibitors of caspase-2” (priority 2017, dated 2022)
Where a SMILES comes first, the peptide text is derived from it. [ ]: non-standard residue; d: D form. The star is where a group is joined. Pro(3S-CH2tBu) = CC(C)(C)C[C@H]1CCN[C@@H]1C(=O)O; X4 = CN(Cc1ccccc1)C(=O)/C=C/C(=O)N(CC(=O)O)N*; X3 = O=C(O)CN(N*)C(=O)COc1c(F)cccc1F; Quinaldoyl = O=C(c1ccc2ccccc2n1)*; X1 = c1ncc(CO*)s1

Columns and labels:
Caspase-2 = biological target: T1, Caspase-2 (Homo sapiens, UniProt P42575); experiment: Caspase-2 inhibition assay for irreversible inhibitors (kinact/KI, continuous method); format: biochemical; conditions: for Selectivity for Caspase 2: comparison of kinact/KI ratios regarding caspase 2 and 3
T1 construct: the Caspase-2 and Caspase-3 are human recombinant active enzymes; purchased Enzo Life ALX-201-057-U100
T1 sequence (P42575 170-325 limits assumed): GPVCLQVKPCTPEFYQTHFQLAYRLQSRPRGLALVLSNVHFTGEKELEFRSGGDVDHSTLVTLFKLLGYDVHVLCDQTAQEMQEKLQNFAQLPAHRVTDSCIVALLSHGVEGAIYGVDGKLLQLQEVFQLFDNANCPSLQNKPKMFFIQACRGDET
T1 sequence (P42575 348-452 limits assumed): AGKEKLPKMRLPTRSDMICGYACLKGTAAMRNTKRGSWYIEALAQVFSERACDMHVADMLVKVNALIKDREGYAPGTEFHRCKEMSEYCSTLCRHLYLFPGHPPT
Procedure: The efficiency of the comparative compound Δ2Me-TRP601, that is an already known group II Caspase inhibitor (inhibitor of Caspase-2, Caspase-3 and Caspase-7), has been assessed by a similar protocol described in Chauvier et al., 2011 Cell Death Dis 2011, 2:e203.
In this example, the Caspase-2 and Caspase-3 are human recombinant active enzymes that are respectively provided by Enzo Life® (ALX-201-057-U100) and R&D Systems® (707-C3-010/CF).
Caspase-2 is used at a final concentration of 0.1 nM in a “Caspase-2 buffer” containing 20 mM HEPES (pH 7.4), 5 mM DTT, 2 mM EDTA, 0.1% CHAPS and 800 mM succinate. Caspase-3 is used at a final concentration of 0.5 nM in a “Caspase-3 buffer” containing 20 mM HEPES (pH 7.4), 0.1% CHAPS, 5 mM DTT, and 2 mM EDTA.
The peptide substrates used for the enzymatic activity measurements are Ac-DEVD-AMC and Ac-VDVAD-AMC commercialized by EnzoLife® (respectively referenced ALX-260-031-M005 and ALX-260-060-M005). They are fluorogenic due to the presence of their AMC (7-amino-4-methylcoumarin) end group. The releasing of AMC enables to follow the enzymatic activity in fluorescence unit RFU over time in a 96-wells microplate.
The fluorescence values are measured at 37° C. with a spectrofluorometer with a microplate reader BMG FLUOstar OPTIMA. This apparatus is driven by the software Biolise® and is equipped with thermoelectric cooling device by Peltier effect. The mathematical analyses of the experimental data are done with the software Kaleidagraph®.
The inhibitory properties of the tested compounds are evaluated by the determination of the kinact/KI ratio regarding either Caspase-2 or Caspase-3 wherein: • kinact is the maximal inactivation rate constant, and • KI is the dissociation constant according to:
Said ratio is measured according to the continuous method (Allison R D. Curr Protoc Protein Sci. 2001 May; Chapter 3:Unit 3.5.; Chauvier et al., 2011 Cell Death Dis 2:e203; Tan et al., J Med Chem 2015, […]).
Briefly, Caspases activities were determined by monitoring the hydrolysis of fluorogenic substrates (λexc=355 nm, λem=460 nm) as a function of time, in the presence of untreated Caspases (control) or Caspases that had been incubated with a test compound, for 30 min minimum at 37° C. using a BMG Fluostar microplate reader (black 96-well microplates) and the initial velocity (V0) was determined from the linear portion of the progress curve.
Substrates and compounds were previously dissolved in DMSO at 10 mM, with the final solvent concentration kept at lower 4% (v/v). V0, relative velocities, KM and IC50 were determined from experimental data using Mars data Analysis 2.0 and Kaleidagraph softwares.
Inhibitor binding affinity (dissociation constant, KI) and first-order rate constant (k3) parameters were determined for Caspase-2 and Caspase-3 using the progress curve method. The ratio k3/KI was obtained by fitting the experimental data to the equations (F.U., fluorescence unit): […]
A continuous method of determination of the kinact/KI ratio was used for evaluating the inhibitory activity of the tested compounds against Caspase-2 and Caspase-3.
The reaction mixture is prepared by letting the enzyme and the buffer incubate at 37° C.
The tested inhibitory compounds are prepared at different concentrations (¼ IC50; ½ IC50; IC50; 2 IC50; 4 IC50) and put in the microplate.
Then the reaction mixture comprising the enzyme, the buffer and the substrate is rapidly added in the wells.
The activities of the enzyme are measured between 45 and 60 minutes.
The RFU (Relative Fluorescence Units)=f(times) curves are traced for each concentration of tested molecule according to the following equation: ((((−V0)*(exp(−kobs*m0)))+V0)/kobs*)+RFU0
in which: • V0 corresponds to the initial rate (RFU·s^−1) in the concentration of 0 of the tested inhibitory compound; • kobs is the inactivation rate constant; • RFU0 is the fluorescence value at t=0 min; and • m0 is the variable i.e. the inhibitor concentration.

Casp-2 = biological target: T2, Casp-2 (Homo sapiens, UniProt P42575); experiment: Caspase-2 inhibition assay for reversible inhibitors (IC50, Ki, dilution method); format: biochemical
T2 construct: the Caspase-2 and Caspase-3 are human recombinant active enzymes; purchased Enzo Life ALX-201-057-U100
T2 sequence (P42575 170-325 limits assumed): T1 sequence (P42575 170-325 limits assumed)
T2 sequence (P42575 348-452 limits assumed): T1 sequence (P42575 348-452 limits assumed)
Procedure: A preliminary step in the characterization of an inhibitor is the determination of its IC50. The IC50 is the necessary concentration of an inhibitor to decrease the enzyme activity by 50% of its maximum and uninhibited value.
The compound, at different concentrations, is incubated with the enzyme and buffer for 30 minutes at 37° C. to allow formation of the Enzyme-Inhibitor complex. The reaction is initiated by addition of buffer and substrate, and then activity is measured over 15 minutes for the determination of initial velocities.
The enzyme and the inhibitor (or DMSO as control) are incubated for 30 minutes at 37° C. The complex thus formed is diluted to 100th in the buffer/substrate mixture and then the activity measurement is started over 20 minutes. The initial rate obtained for the DMSO represents the 100% activity and will serve as a reference for the quantification of the residual activity of the enzyme in the presence of the inhibitor.
The reaction is started over 20 minutes upon addition of the buffer-substrate mixture.
Initial velocity values in RFU·min^−1 are reduced to Specific Activity (SA)values (pmol/min/μg enzyme) from an AMC standard range (1 RFU→0.02 pmol).
The evolution of the ratio 1/SA as a function of 1/[S] makes it possible to obtain the so-called double-inverse graph of Lineweaver-Burk from equation 4 (eq.4) where Vmaxapp and KMapp are the parameters which vary according to the type inhibition and as a function of inhibitor concentration. The intersection of the lines obtained for increasing inhibitor concentrations makes it possible to distinguish different types of inhibitors.
A secondary graph, obtained from the values of the slopes of the Lineweaver-Burk plot as a function of the concentration of inhibitor, makes it possible to obtain the value of the Ki. Its value is given by the abscissa point at the origin.
The initial velocity V0 is expressed from equation 8 (eq.8), where Vmax is the maximum reaction rate (reached when the enzyme is saturated with substrate), [S] the substrate concentration, KM is the Michaelis-Menten constant (substrate concentration corresponding to Vmax/2), Ki is the dissociation constant which accounts for the affinity of the inhibitor for the enzyme.

Structure (SMILES): CC(C)[C@H](NC(=O)[C@H](CC(=O)O)NC(=O)C(=O)Nc1ccccc1C(C)(C)C)C(=O)N1CC[C@H](CC(C)(C)C)[C@H]1C(=O)NN(CC(=O)O)C(=O)COc1c(F)cccc1F [Compound 6, (S)-3-(2-((2-(tert-butyl)phenyl)amino)-2-oxoacetamido)-4-(((S)-1-((2S,3S)-2-(2-(carboxymethyl)-2-(2-(2,6-difluorophenoxy)acetyl)hydrazinecarbonyl)-3-neopentylpyrrolidin-1-yl)-3-methyl-1-oxobutan-2-yl)amino)-4-oxobutanoic acid]
- type of inhibition (irreversible) (Caspase-2): irreversible inhibitor
- Selectivity for Caspase 2 (Caspase-2): yes

Structure (SMILES): CC(C)[C@H](NC(=O)c1ccc2ccccc2n1)C(=O)N[C@@H](CC(=O)O)C(=O)N[C@H](C(=O)N1CC[C@H](CC(C)(C)C)[C@H]1C(=O)N[C@@H](CC(=O)O)C(=O)OCc1cncs1)C(C)C [Compound 3, (S)-4-(((S)-1-((2S,3S)-2-(((S)-3-carboxy-1-oxo-1-(thiazol-5 - ylmethoxy)propan-2-yl)carbamoyl)-3-neopenthylpyrrolidin-1-yl)-3-methyl-1-oxobutan-2-yl)amino)-3-((S)-3-methyl-2-(quinoline-2-carboxamido)butanamido)-4-oxobutanoic acid] (Quinaldoyl-VDV[Pro(3S-CH2tBu)]D-X1)
- Selectivity Indexes (KiCasp3/KiCasp2) (Casp-2): >>1000
- potency on Casp-2 (Casp-2): still powerful on Casp-2
- type of inhibition (reversible), dilution method (Casp-2): reversible inhibitor
- Casp-2 selectivity (Casp-2; from IC50 on Casp-2 and Caspase-3): Casp2-selective

Structure (SMILES): CC(C)[C@H](NC(=O)c1ccc2ccccc2n1)C(=O)N[C@@H](CC(=O)O)C(=O)N[C@H](C(=O)N1CC[C@H](CC(C)(C)C)[C@H]1C(=O)NN(CC(=O)O)C(=O)COc1c(F)cccc1F)C(C)C [Compound 4, (S)-4-(((S)-1-((2S,3S)-2-(2-(carboxymethyl)-2-(2-(2,6-difluorophenoxy)acetyl)hydrazinecarbonyl)-3-neopentylpyrrolidin-1-yl)-3-methyl-1-oxobutan-2-yl)amino)-3-((S)-3-methyl-2-(quinoline-2-carboxamido)butanamido)-4-oxobutanoic acid] (Quinaldoyl-VDV[Pro(3S-CH2tBu)]-X3)
- type of inhibition (irreversible) (Caspase-2): irreversible inhibitor
- Selectivity for Caspase 2 (Caspase-2): yes

Structure (SMILES): CC(C)[C@H](NC(=O)c1ccc2ccccc2n1)C(=O)N[C@@H](CC(=O)O)C(=O)N[C@H](C(=O)N1CC[C@H](CC(C)(C)C)[C@H]1C(=O)N[C@@H](CC(=O)O)C(=O)COc1c(F)cccc1F)C(C)C (single isomer, unassigned) [Compound 2 enantiomer a]
- k3/KI Casp2 (Caspase-2; human recombinant Caspase-2 0.1 nM, 37° C.): 1 894 076 M^−1 · s^−1
- Selectivity ratio (C2/C3) (Caspase-2; ratio of k3/KI Casp2 to Casp3): 721

Structure (SMILES): CC(C)[C@H](NC(=O)c1ccc2ccccc2n1)C(=O)N[C@@H](CC(=O)O)C(=O)N[C@H](C(=O)N1CC[C@H](CC(C)(C)C)[C@H]1C(=O)NN(CC(=O)O)C(=O)/C=C/C(=O)N(C)Cc1ccccc1)C(C)C [Compound 5, (S)-4-(((S)-1-((2S,3S)-2-(2-((E)-4-(benzyl(methyl)amino)-4-oxobut-2-enoyl)-2-(carboxymethyl)hydrazinecarbonyl)-3-neopentylpyrrolidin-1-yl)-3-methyl-1-oxobutan-2-yl)amino)-3-((S)-3-methyl-2-(quinoline-2-carboxamido)butanamido)-4-oxobutanoic acid] (Quinaldoyl-VDV[Pro(3S-CH2tBu)]-X4)
- type of inhibition (irreversible) (Caspase-2): irreversible inhibitor
- Selectivity for Caspase 2 (Caspase-2): yes
